Experimental data from US12653795B1, “Bupropion as a modulator of drug activity” (ANTECIP BIOVENTURES II LLC, priority 2022, dated 2026).

Assay: Pharmacokinetics after administration of the subject combination
Conditions: co-administered with bupropion; dextromethorphan 30 to 60 mg, bupropion 75 to 150 mg
From the text: In the subject combination, bupropion inhibits the metabolism of dextromethorphan via CYP2D6.

In the case of `COc1ccc2c(c1)[C@]13CCCC[C@@H]1[C@H](C2)N(C)CC3` [dextromethorphan], the “pharmacokinetics at steady state (dose proportionality of AUC and Cmax)” value is reported as “nonlinear pharmacokinetics”.
